The inhibition in vivo is the share of the control response that was lost under treatment.

What all share (type): functional
For one experiment, the system named is Aspergillus niger. The experiment can be described thus: Antifungal activity against Aspergillus niger assessed as growth inhibition at 10 ug/disk. The following applies: read-out: IZ.
In another experiment the test system is Candida albicans. The experiment can be described thus: Antifungal activity against Candida albicans assessed as growth inhibition at 10 ug/disk. The settings on record: read-out: IZ.
The next experiment has as its system Pseudomonas aeruginosa. The experiment can be described thus: Antibacterial activity against Pseudomonas aeruginosa assessed as growth inhibition at 10 ug/disk. The following applies: read-out: IZ.
Another experiment concerns Escherichia coli. The experiment can be described thus: Antibacterial activity against Escherichia coli assessed as growth inhibition at 10 ug/disk. The following applies: read-out: IZ.
For the next experiment, the system named is Bacillus subtilis. The experiment can be described thus: Antibacterial activity against Bacillus subtilis assessed as growth inhibition at 10 ug/disk. The following applies: read-out: IZ.
For the next experiment, the system named is Staphylococcus aureus. The experiment can be described thus: Antibacterial activity against Staphylococcus aureus assessed as growth inhibition at 10 ug/disk. The following applies: read-out: IZ.
The next experiment deals with Rattus norvegicus. The experiment can be described thus: Anti-inflammatory activity in Rattus norvegicus Wistar albino (rat) assessed as inhibition of carrageenan-induced paw edema at 10 mg/kg, po relative to untreated control. Background: The carrageenan paw model is a standard test of acute inflammation.

Consider `Cc1ccc(OCc2ccccc2-c2nc(-c3cccc(Br)c3)cs2)cc1`, for which the zone of inhibition at 10 µg/disc in the experiment on Aspergillus niger was 11 mm; in the experiment on Candida albicans, 14 mm; with Pseudomonas aeruginosa, 10 mm; with Escherichia coli, 8 mm; in the experiment on Bacillus subtilis, 12 mm; in the experiment with Staphylococcus aureus, 10 mm. Besides, the inhibition in vivo at 10 mg/kg in the experiment on Rattus norvegicus was 44.5%.
Turning to `Cc1ccccc1OCc1ccccc1-c1nc(-c2cccc(Br)c2)cs1`, the zone of inhibition at 10 µg/disc amounted to 11 mm with Aspergillus niger; 10 mm in the experiment on Candida albicans; 8 mm with Pseudomonas aeruginosa; 8 mm in the experiment with Escherichia coli; 12 mm in the experiment with Bacillus subtilis; 10 mm in the experiment on Staphylococcus aureus. In addition, the inhibition in vivo at 10 mg/kg in the experiment on Rattus norvegicus is 40.4%.
As for `NS(=O)(=O)c1sc(Cl)cc1-c1csc(-c2ccccc2COc2ccc(Cl)cc2)n1`, the zone of inhibition at 10 µg/disc with Aspergillus niger was found to be 24 mm; in the experiment with Candida albicans, 26 mm; with Pseudomonas aeruginosa, 24 mm; with Escherichia coli it was 26 mm; in the experiment with Bacillus subtilis, 28 mm; with Staphylococcus aureus, 28 mm. Moreover, the inhibition in vivo at 10 mg/kg in the experiment with Rattus norvegicus was 76.4%.
Consider `Cc1ccc(OCc2ccccc2-c2nc(-c3cc(Cl)sc3S(N)(=O)=O)cs2)cc1`, for which the zone of inhibition at 10 µg/disc in the experiment on Aspergillus niger was found to be 16 mm; in the experiment on Candida albicans, 20 mm; with Pseudomonas aeruginosa it was 20 mm; in the experiment on Escherichia coli it was 22 mm; in the experiment with Bacillus subtilis it was 18 mm; with Staphylococcus aureus, 20 mm. The inhibition in vivo at 10 mg/kg with Rattus norvegicus worked out at 68.7%.
As for `Cc1ccc(OCc2ccccc2-c2nc(CN3CCN(C(c4ccccc4)c4ccccc4)CC3)cs2)cc1`, the zone of inhibition at 10 µg/disc with Aspergillus niger was found to be 8 mm; in the experiment on Candida albicans, 10 mm; in the experiment with Pseudomonas aeruginosa, 18 mm; in the experiment with Escherichia coli it was 18 mm; with Bacillus subtilis, 21 mm; in the experiment with Staphylococcus aureus, 20 mm. Further, the inhibition in vivo at 10 mg/kg in the experiment on Rattus norvegicus came to 63.9%.
Consider `Cc1ccccc1OCc1ccccc1-c1nc(CN2CCN(C(c3ccccc3)c3ccc(Cl)cc3)CC2)cs1` (centres undefined), for which the zone of inhibition at 10 µg/disc in the experiment with Aspergillus niger is 20 mm; with Candida albicans, 22 mm; with Pseudomonas aeruginosa it was 24 mm; in the experiment with Escherichia coli, 26 mm; in the experiment with Bacillus subtilis, 28 mm; in the experiment on Staphylococcus aureus, 28 mm. The inhibition in vivo at 10 mg/kg in the experiment on Rattus norvegicus was found to be 63.1%.
Take `Cc1cccc(OCc2ccccc2-c2nc(-c3cccc(Br)c3)cs2)c1`: the zone of inhibition at 10 µg/disc was determined as 16 mm with Aspergillus niger; 14 mm with Candida albicans; 10 mm with Pseudomonas aeruginosa; 10 mm with Escherichia coli; 10 mm in the experiment on Bacillus subtilis; 12 mm in the experiment on Staphylococcus aureus. Besides, the inhibition in vivo at 10 mg/kg in the experiment with Rattus norvegicus turned out to be 46.7%.
For the compound `Clc1ccc(OCc2ccccc2-c2nc(CN3CCN(C(c4ccccc4)c4ccccc4)CC3)cs2)cc1`, the zone of inhibition at 10 µg/disc in the experiment with Aspergillus niger worked out at 24 mm; in the experiment with Candida albicans, 28 mm; with Pseudomonas aeruginosa, 26 mm; in the experiment with Escherichia coli, 28 mm; with Bacillus subtilis, 26 mm; with Staphylococcus aureus it was 28 mm. For the same compound, the inhibition in vivo at 10 mg/kg in the experiment on Rattus norvegicus is 64.9%.
Regarding `Cc1ccc(OCc2ccccc2-c2nc(-c3ccc([N+](=O)[O-])cc3)cs2)cc1`, the zone of inhibition at 10 µg/disc was determined as 14 mm in the experiment on Aspergillus niger; 11 mm in the experiment with Candida albicans; 12 mm in the experiment with Pseudomonas aeruginosa; 10 mm with Escherichia coli; 10 mm with Bacillus subtilis; 12 mm in the experiment on Staphylococcus aureus. Further, in the experiment with Rattus norvegicus, the inhibition in vivo at 10 mg/kg was found to be 56.9%.
As to `O=[N+]([O-])c1ccc(-c2csc(-c3ccccc3COc3ccc(Cl)cc3)n2)cc1`, the zone of inhibition at 10 µg/disc turned out to be 18 mm in the experiment with Aspergillus niger; 20 mm in the experiment with Candida albicans; 18 mm in the experiment on Pseudomonas aeruginosa; 22 mm in the experiment on Escherichia coli; 18 mm in the experiment with Bacillus subtilis; 22 mm in the experiment with Staphylococcus aureus. The inhibition in vivo at 10 mg/kg with Rattus norvegicus is 67.1%.
`Cc1cccc(OCc2ccccc2-c2nc(CN3CCN(C(c4ccccc4)c4ccccc4)CC3)cs2)c1`: the zone of inhibition at 10 µg/disc in the experiment on Aspergillus niger amounted to 11 mm; with Candida albicans, 10 mm; in the experiment with Pseudomonas aeruginosa it was 20 mm; with Escherichia coli it was 22 mm; in the experiment on Bacillus subtilis it was 20 mm; in the experiment on Staphylococcus aureus, 19 mm. Moreover, the inhibition in vivo at 10 mg/kg in the experiment with Rattus norvegicus came out at 64.1%.
Turning to `NC(=O)c1cc(-c2csc(-c3ccccc3COc3ccc(Cl)cc3)n2)ccc1O`, the zone of inhibition at 10 µg/disc came to 25 mm in the experiment with Aspergillus niger; 27 mm in the experiment on Candida albicans; 24 mm with Pseudomonas aeruginosa; 28 mm with Escherichia coli; 26 mm in the experiment on Bacillus subtilis; 28 mm with Staphylococcus aureus. Besides, the inhibition in vivo at 10 mg/kg in the experiment on Rattus norvegicus amounted to 72.2%.

Source of the values: ChEMBL document CHEMBL3044745, “Synthesis and evaluation of biological and nonlinear optical properties of some novel 2,4-disubstituted [1,3]-thiazoles carrying 2-(aryloxymethyl)-phenyl moiety” (2013).
